≈ marks a conversion by molar mass, not a printed value. Like-named read-outs stand apart in the source and are kept apart here.
Key:
[1] = test system: L. donovani promastigotes; parameters: method as in PMID 19067375; details: cited from earlier work
[2] = test system: L. amazonensis amastigote; parameters: method as in PMID 15070160; details: cited from earlier work
[3] = test system: L. amazonensis promastigote; parameters: method as in PMID 15070160; details: cited from earlier work
[4] = test system: axenically grown L. donovani amastigotes; details: literature value, no reference given; read-out: IC50 against axenically grown L. donovani amastigotes; cited from earlier work
[5] = Cytotoxicity on NCTC-Clone 929 fibroblasts (resazurin); assay type: cell-based; details: mouse
Procedure: The cell line used was NCTC-Clone 929, which was grown in Minimal Essential Medium (Sigma) supplemented with 10% heat-inactivated FBS, penicillin G (100 U/mL), and streptomycin (100 µg/mL). Cell cultures were maintained at 37 °C in a humidified 5% CO2 atmosphere. The procedure for cell viability measurement was evaluated with resazurin by a colorimetric method. The cells were plated in 96-microtiter plates at 3 × 10^4 cells per well in a 100 µL growth medium. The cells were grown overnight at 37 °C, 5% CO2. Thereafter, the medium was removed and the compounds were added in a 200 µL medium for 24 h. After incubation, 20 µL of a 2 mM resazurin solution was added to each well. The plates were incubated for 3 h to allow optimal oxidation-reduction. The reduction of resazurin was determined by dual wavelength absorbance measurement at 490 and 595 nm. Background was subtracted. Each concentration was assayed three times. Medium and drug controls were used in each test as blanks.

[6] = test system: T. cruzi epimastigotes; test: Antiepimastigote activity, T. cruzi CL-B5 lacZ (CPRG); assay type: cell-based, Trypanosoma cruzi; details: Trypanosoma cruzi, clone CL-B5, 72 h
Procedure: For in vitro studies of T. cruzi, the clone CL-B5 was used (donated by Faculty of Pharmacy, Complutense University, Madrid, Spain). Parasites were stably transfected with the Escherichia coli β-galactosidase gene (lacZ). Epimastigotes were grown at 28 °C in liver infusion tryptose broth (Difco, Detroit, MI, USA) with 10% fetal bovine serum (FBS) (Gibco, Carlsbad, CA, USA), penicillin (Ern S.A., Barcelona, Spain), and streptomycin (Reig Jofré S.A., Barcelona, Spain), as described previously, and harvested during the exponential growth phase. Briefly, the screening assay was performed in 96-well microplates (Sarstedt, Inc., Newton, NC, USA) with cultures that had not reached the stationary phase. Epimastigotes were seeded at 2 × 10^5 parasites/mL in 200 µL growth media. The plates were then incubated with the respective compounds at 28 °C for 72 h; afterwards, 50 µL of chlorophenol red-β-D-galactopyranoside (CPRG) solution was added, resulting in a final concentration of 200 µM. The plates were incubated at 37 °C for an additional 4 h and then read at 595 nm. Each concentration was tested in triplicate. The efficacy of each compound was estimated by calculating the IC50 values. These values were calculated by the sigmoidal dose–response curve adjustment using the statistical software program Graph-Pad Prims 3.0 (GraphPhad, San Diego, CA, USA). Benznidazole was used as the reference drug.

[7] = test system: L. braziliensis promastigotes; test: Leishmanicidal activity on L. braziliensis promastigotes (resazurin); assay type: cell-based, Leishmania braziliensis; details: Leishmania braziliensis, 48 h, read-out: Leishmanicidal Activity on Promastigotes, L. braziliensis, IC50
Procedure: (§1) Culture of L. braziliensis (MHOM/BR/75/M2904), and L. infantum (MHOM/FR/91/LEM2259V) was obtained from the Facultad de Farmacia (Universidad Complutense de, Madrid, Spain). The maintenance of the strains, the form of cultivation, and the isolation of shape promastigota were performed following the procedures described by Roldos et al.. The promastigotes were grown at 22 °C in Schneider’s Drosophila medium supplemented with 20% FBS. The assay was performed using a modification of a previous method. Promastigotes (2 × 10^6 parasites/well) were cultured in 96-well plastic plates. Compounds were dissolved in dimethylsulfoxide (DMSO). Different dilutions of the compounds with a final volume up to 200 µL were added. After 48 h at 26 °C, 20 µL of a 2 mM resazurin solution was added, and the oxidation-reduction was quantified at 570 and 600 nm. The solution of resazurin was prepared at 2.5 mM in phosphate buffered solution (PBS), pH 7.4, and filtered through 0.22 µm prior to use. All tests were carried out in triplicate. Resazurin sodium salt was obtained from Sigma-Aldrich (St. Louis, MO, USA) and stored at 4 °C protected from light. The efficacy of each compound was estimated by calculating the IC50 values.

[8] = test system: L. infantum promastigotes; test: Leishmanicidal activity on L. infantum promastigotes (resazurin); assay type: cell-based, Leishmania infantum; details: Leishmania infantum, 48 h, read-out: Leishmanicidal Activity on Promastigotes, L. infantum, IC50
Procedure: as §1

[9] = test system: L. braziliensis, L. amazonensis, and L. infantum amastigote; parameters: method as in PMID 26772973; details: read-out: IC50 against amastigote of three Leishmania species; cited from earlier work
[10] = test system: L. braziliensis, L. amazonensis, and L. infantum promastigotes; parameters: method as in PMID 26772973; details: read-out: IC50 against promastigotes of three Leishmania species; cited from earlier work

Row | Compound | IC50 at 24 h [5] [µg/mL] | IC50 [6] [µg/mL] | IC50 [7] [µg/mL] | IC50 [8] [µg/mL] | IC50 ([8]; promastigotes) [µg/mL] | further results
1 | CC(C)c1c(O)ccc2c1CC[C@H]1C(C)(C)CCC[C@]21C [totarol] |  |  |  |  |  | IC50 against L. donovani promastigotes [1]: 3.5 µg/mL (≈ 12.2 µM); IC90 against L. donovani promastigotes [1]: 6.9 µg/mL (≈ 24.1 µM)
2 | CC(C)c1cc2c(cc1O)[C@@]1(C)CCCC(C)(C)[C@@H]1CC2 [ferruginol] |  |  |  |  |  | IC50 against L. donovani promastigotes [1]: 3.5 µg/mL (≈ 12.2 µM); IC90 against L. donovani promastigotes [1]: 7.0 µg/mL (≈ 24.4 µM)
3 | C[C@H]1[C@H](C)CC[C@]2(C(=O)O)CC[C@]3(C)C(=CC[C@@H]4[C@@]5(C)CC[C@H](O)C(C)(C)[C@@H]5CC[C@]43C)[C@H]12 [Ursolic acid] |  |  |  |  |  | IC50 against amastigote stage of L. amazonensis [2]: 27 µg/mL; IC50 against promastigote stage of L. amazonensis [3]: 5 µg/mL
4 | COc1c(C(C)C)cc2c(c1O)[C@@]1(C(=O)O)CCCC(C)(C)[C@@H]1CC2 [12-methoxycarnosic acid] |  |  |  |  |  | IC50 [4]: 0.75 µM
5 | CC(C)c1ccc2c(c1)CCC1[C@](C)(COC(=O)CCCCc3cn(Cc4ccccc4)nn3)CCC[C@]21C (stereo partly shown) [Compound 8] | > 256 | > 256 | > 256 | > 256 |  | 
6 | CC(C)c1ccc2c(c1)CCC1[C@](C)(COC(=O)CCc3cn(-c4ccccc4)nn3)CCC[C@]21C (stereo partly shown) [Compound 5] | > 256 | 223 (≈ 459 µM) |  |  | 193 (≈ 397 µM) | IC50 ([7]; promastigotes): 218 µg/mL (≈ 449 µM)
7 | Cc1ccc(S(=O)(=O)n2cc(CCCC(=O)O[C@H]3CC[C@@]4(C)C(CC[C@]5(C)C4CC=C4[C@@H]6CC(C)(C)CC[C@]6(C(=O)O)CC[C@]45C)C3(C)C)nn2)cc1 (stereo partly shown) [Compound 31] | > 256 | > 256 | > 256 |  | 128 (≈ 171 µM) | 
8 | COC(=O)[C@]12CCC(C)(C)C[C@H]1C1=CCC3[C@@]4(C)CC[C@H](OC(=O)CCc5cn(S(=O)(=O)c6ccc(C)cc6)nn5)C(C)(C)C4CC[C@@]3(C)[C@]1(C)CC2 (stereo partly shown) [Compound 28] | > 256 | 61 (≈ 81.5 µM) |  |  | > 256 | IC50 ([7]; promastigotes): > 256 µg/mL
9 | COC(=O)[C@]12CCC(C)(C)C[C@H]1C1=CCC3[C@@]4(C)CC[C@H](OC(=O)CCc5cn(Cc6ccc(Cl)cc6)nn5)C(C)(C)C4CC[C@@]3(C)[C@]1(C)CC2 (stereo partly shown) [Compound 26] | > 256 | > 256 | > 256 | > 256 |  | 
10 | Cc1ccc(S(=O)(=O)n2cc(CCC(=O)O[C@H]3CC[C@@]4(C)C(CC[C@]5(C)C4CC=C4[C@@H]6CC(C)(C)CC[C@]6(C(=O)O)CC[C@]45C)C3(C)C)nn2)cc1 (stereo partly shown) [Compound 27] | > 256 | 43 (≈ 58.6 µM) |  |  | > 256 | IC50 ([7]; promastigotes): > 256 µg/mL
11 | C#CCCCC(=O)O[C@H]1CC[C@@]2(C)C(CC[C@]3(C)C2CC=C2[C@@H]4CC(C)(C)CC[C@]4(C(=O)OC)CC[C@]23C)C1(C)C (stereo partly shown) [Compound 20] | > 256 | > 256 | > 256 | > 256 |  | 
12 | CC1(C)CC[C@]2(C(=O)O)CC[C@]3(C)C(=CC[C@@H]4[C@@]5(C)CC[C@H](O)C(C)(C)[C@@H]5CC[C@]43C)[C@@H]2C1 [OA, Oleanolic acid] |  | > 256 | > 256 | > 256 |  | IC50 [9]: 38 to 69 µM; IC50 against amastigote stage of L. amazonensis [2]: 11 µg/mL; IC50 against promastigote stage of L. amazonensis [3]: 10 µg/mL; IC50 [10]: 30 to 66 µM
13 | CC(C)c1ccc2c(c1)CCC1[C@](C)(C(=O)OCc3cn(CSc4ccccc4)nn3)CCC[C@]21C (stereo partly shown) [Compound 3] | > 256 | > 256 | > 256 | > 256 |  | 

From paper PMC6155273, “Antiprotozoal Activity of Triazole Derivatives of Dehydroabietic Acid and Oleanolic Acid” (Molecules : A Journal of Synthetic Chemistry and Natural …, 2017)
